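Growth conditions: 96-well plates. Treatment: test compound, 48 hours, 5 concentrations. Analysis: linear interpolation between bracketing concentrations; unreached endpoints set to highest concentration. GI50: concentration for 50% inhibition of growth.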 Calls of active or inactive are those of the source. No stated cut-off is given here; in the data, active = GI50 up to about 1.1 µM and inactive = higher.
Key:
Assay in all cases: growth of human tumour cells (NCI), 48 h
A498 = tested on: A498
CCRF-CEM = tested on: CCRF-CEM
COLO 205 = tested on: COLO 205
EKVX = tested on: EKVX
HCC 2998 = tested on: HCC 2998
HT-29 = tested on: HT-29
MDA-MB-435 = tested on: MDA-MB-435
MDA-N = tested on: MDA-N
Malme-3M = tested on: Malme-3M
NCI-H23 = tested on: NCI-H23
NCI-H460 = tested on: NCI-H460
OVCAR-8 = tested on: OVCAR-8
PC-3 = tested on: PC-3
SF-268 = tested on: SF-268
SF-539 = tested on: SF-539
SK-MEL-28 = tested on: SK-MEL-28
SN12C = tested on: SN12C
TK-10 = tested on: TK-10
UO-31 = tested on: UO-31
RXF 393 = tested on: RXF 393

Row | SMILES | GI50 (A498) | GI50 (CCRF-CEM) | GI50 (COLO 205) | GI50 (EKVX) | GI50 (HCC 2998) | GI50 (HT-29) | GI50 (MDA-MB-435) | GI50 (MDA-N) | GI50 (Malme-3M) | GI50 (NCI-H23) | GI50 (NCI-H460) | GI50 (OVCAR-8) | GI50 (PC-3) | GI50 (SF-268) | GI50 (SF-539) | GI50 (SK-MEL-28) | GI50 (SN12C) | GI50 (TK-10) | GI50 (UO-31) | GI50 (RXF 393)
1 | COC(O)C(=O)c1c2c(cc3c1CCC3)CCCC2 (centres undefined) | 13.5 µM (inactive) | 2.39 µM (inactive) | 6.62 µM (inactive) | 16.7 µM (inactive) | 1.97 µM (inactive) | 2.69 µM (inactive) | 17.4 µM (inactive) | 13 µM (inactive) | 14 µM (inactive) | 10.7 µM (inactive) | 7.5 µM (inactive) | 7.87 µM (inactive) | 4.32 µM (inactive) | 15.2 µM (inactive) | 4.32 µM (inactive) | 9.48 µM (inactive) | 4.66 µM (inactive) | 16.3 µM (inactive) | 17.7 µM (inactive) | 
2 | C=C1C(=O)O[C@H]2C/C(C=O)=C\[C@H]3O[C@H]3/C(COC(=O)C(C)C)=C/CC12 (some centres undefined) |  | 1.83 µM (inactive) | 1.93 µM (inactive) | 16.3 µM (inactive) | 13.4 µM (inactive) | 3.07 µM (inactive) | 4.25 µM (inactive) | 2.91 µM (inactive) | 10.3 µM (inactive) | 4.97 µM (inactive) | 10.5 µM (inactive) | 3.14 µM (inactive) | 1.85 µM (inactive) |  | 21.5 µM (inactive) | 3.3 µM (inactive) | 2.54 µM (inactive) | 11.8 µM (inactive) | 5.58 µM (inactive) | 3.49 µM (inactive)
3 | COc1ccc2nc3c([N+](=O)[O-])ccc4c3c(c2c1)N=CN4CCCN(C)C | 5.6 µM (inactive) | 0.807 µM (active) | 0.855 µM (active) | 1.64 µM (inactive) | 1.37 µM (inactive) | 0.57 µM (active) | 2.54 µM (inactive) | 4.62 µM (inactive) | 6.3 µM (inactive) | 4.27 µM (inactive) | 0.773 µM (active) | 1.3 µM (inactive) | 1.21 µM (inactive) | 2.77 µM (inactive) | 0.944 µM (active) | 10 µM (inactive) | 1.97 µM (inactive) | 1.45 µM (inactive) | 2.38 µM (inactive) | 
4 | N#Cc1c(-c2ccc(Cl)cc2)cc(-c2nc3ccccc3[nH]2)nc1N | 8.85 µM (inactive) | 5.57 µM (inactive) | 4.3 µM (inactive) | 11 µM (inactive) | 4.02 µM (inactive) | 9.16 µM (inactive) | 5.43 µM (inactive) | 6.49 µM (inactive) | 16.6 µM (inactive) | 14.2 µM (inactive) | 7.19 µM (inactive) | 13 µM (inactive) | 11 µM (inactive) | 7.98 µM (inactive) | 15.3 µM (inactive) | 12.2 µM (inactive) | 13.4 µM (inactive) | 10.1 µM (inactive) | 9.1 µM (inactive) | 
5 | COc1ccc(-c2oc3cc(OC(C)=O)cc(OC(C)=O)c3c(=O)c2OC)cc1 | 21.7 µM (inactive) | 18.2 µM (inactive) | 15.9 µM (inactive) | 13.9 µM (inactive) | 18.3 µM (inactive) | 16.7 µM (inactive) | 10.4 µM (inactive) | 12.7 µM (inactive) | 26.5 µM (inactive) |  | 16.9 µM (inactive) | 17 µM (inactive) | 17.9 µM (inactive) | 15.4 µM (inactive) |  | 13.7 µM (inactive) |  | 21.8 µM (inactive) | 19.6 µM (inactive) | 
6 | NS(=O)(=O)c1ccc(-n2c(-c3cccs3)nc3ccc(I)cc3c2=O)cc1 |  |  | 19.7 µM (inactive) | 25.1 µM (inactive) | 22.1 µM (inactive) | 31.7 µM (inactive) | 18.9 µM (inactive) | 33.3 µM (inactive) | 18.3 µM (inactive) | 25.8 µM (inactive) | 25.5 µM (inactive) | 31.4 µM (inactive) | 26.6 µM (inactive) | 28.2 µM (inactive) |  | 17.3 µM (inactive) | 30.3 µM (inactive) | 25.4 µM (inactive) | 20 µM (inactive) | 28.2 µM (inactive)
7 | NC(CCCCCP(=O)(O)O)C(=O)O (centres undefined) [AP-7] |  | > 100 µM (inactive) | > 100 µM (inactive) | > 100 µM (inactive) | > 100 µM (inactive) | > 100 µM (inactive) | > 100 µM (inactive) | > 100 µM (inactive) |  | > 100 µM (inactive) | > 100 µM (inactive) | > 100 µM (inactive) | > 100 µM (inactive) | > 100 µM (inactive) | > 100 µM (inactive) | > 100 µM (inactive) | > 100 µM (inactive) | > 100 µM (inactive) | > 100 µM (inactive) | > 100 µM (inactive)
8 | CN1C(C)(C)CC(=O)C(Br)C1(C)C (centres undefined) |  | > 100 µM (inactive) | > 100 µM (inactive) | > 100 µM (inactive) |  | > 100 µM (inactive) | > 100 µM (inactive) | > 100 µM (inactive) | > 100 µM (inactive) | > 100 µM (inactive) | > 100 µM (inactive) | > 100 µM (inactive) | > 100 µM (inactive) | > 100 µM (inactive) |  | > 100 µM (inactive) | > 100 µM (inactive) | > 100 µM (inactive) | > 100 µM (inactive) | 
9 | CCOC(=O)C1C(=O)C=C(c2cc(C)ccc2O)CC1c1cccc(Cl)c1 (centres undefined) |  | 19.8 µM (inactive) | 18.5 µM (inactive) | 30.1 µM (inactive) | 24.5 µM (inactive) | 32 µM (inactive) | 2.78 µM (inactive) | 6.04 µM (inactive) | 17.3 µM (inactive) | 26.4 µM (inactive) | 26.1 µM (inactive) | 29.3 µM (inactive) | 11.5 µM (inactive) | 22.3 µM (inactive) | 19.6 µM (inactive) |  | 27.7 µM (inactive) | 20.3 µM (inactive) | 19.6 µM (inactive) | 19.3 µM (inactive)
10 | C=C1CC(C)(COc2ccc3ccc(=O)oc3c2)OC1=O (centres undefined) | 7.45 µM (inactive) | 0.402 µM (active) | 0.982 µM (active) | 7.53 µM (inactive) | 2.18 µM (inactive) | 1.57 µM (inactive) | 2.12 µM (inactive) | 0.951 µM (active) | 1.01 µM (active) | 2.29 µM (inactive) | 6.62 µM (inactive) | 4.72 µM (inactive) | 3.48 µM (inactive) | 10.9 µM (inactive) | 2.65 µM (inactive) | 2.94 µM (inactive) | 8.22 µM (inactive) | 1.58 µM (inactive) | 15.8 µM (inactive) | 
11 | O=C1CCc2ccc3c(c21)CC1(Cc2ccccc2C1)C3 |  | 10.6 µM (inactive) | 16.2 µM (inactive) |  | 14.4 µM (inactive) | 3.71 µM (inactive) | 5.98 µM (inactive) | 2.69 µM (inactive) | 10.5 µM (inactive) | 11.6 µM (inactive) | 2.57 µM (inactive) | 7.62 µM (inactive) | 8.73 µM (inactive) | 12.7 µM (inactive) | 5.45 µM (inactive) | 4.37 µM (inactive) | 4.8 µM (inactive) | 11.1 µM (inactive) | 3.45 µM (inactive) | 
12 | CC(=O)O[C@H]1CC[C@H]2[C@@H]3CCC4=C/C(=N/OCCN(C)C)CC[C@]4(C)[C@H]3CC[C@]12C |  | 2.52 µM (inactive) | 2.27 µM (inactive) | 14.4 µM (inactive) | 6.43 µM (inactive) | 2.06 µM (inactive) | 2.19 µM (inactive) | 3.65 µM (inactive) | 13.3 µM (inactive) | 12.9 µM (inactive) | 8.22 µM (inactive) | 13.4 µM (inactive) | 12.5 µM (inactive) | 13.1 µM (inactive) | 2.52 µM (inactive) | 14.6 µM (inactive) | 16.9 µM (inactive) | 11.3 µM (inactive) | 14.9 µM (inactive) | 12 µM (inactive)
13 | CCC(C(=O)c1ccc(OC)c(OC)c1)N(C(=O)C(F)(F)F)C(C)c1ccccc1 (centres undefined) |  | > 100 µM (inactive) | > 100 µM (inactive) | > 100 µM (inactive) | > 100 µM (inactive) | > 100 µM (inactive) | > 100 µM (inactive) | > 100 µM (inactive) | > 100 µM (inactive) |  | > 100 µM (inactive) | > 100 µM (inactive) | > 100 µM (inactive) | 83.9 µM (inactive) |  | > 100 µM (inactive) |  | > 100 µM (inactive) | > 100 µM (inactive) | 
14 | Cc1nc2ccccc2n1Cc1nnc2n1N=C(c1ccccc1)CS2 | 43.8 µM (inactive) | 27.9 µM (inactive) | 30.1 µM (inactive) | 34.3 µM (inactive) | 21.4 µM (inactive) | 30.5 µM (inactive) | 32.7 µM (inactive) | 32.3 µM (inactive) | 49.9 µM (inactive) | 33.2 µM (inactive) | 33.5 µM (inactive) |  | 16.7 µM (inactive) | 40.9 µM (inactive) | 12.5 µM (inactive) | 50.1 µM (inactive) | 36.6 µM (inactive) | 40.1 µM (inactive) | 38.2 µM (inactive) | 
15 | COC(=O)C1C(C(=O)OC)N(Cc2ccccc2)C(=O)N1Cc1ccccc1 (centres undefined) |  | 57.4 µM (inactive) | > 100 µM (inactive) | > 100 µM (inactive) | > 100 µM (inactive) | > 100 µM (inactive) | > 100 µM (inactive) | > 100 µM (inactive) | > 100 µM (inactive) | 75.5 µM (inactive) | 69.5 µM (inactive) | > 100 µM (inactive) | > 100 µM (inactive) | > 100 µM (inactive) | > 100 µM (inactive) | > 100 µM (inactive) | > 100 µM (inactive) | > 100 µM (inactive) | 87.7 µM (inactive) | > 100 µM (inactive)
16 | c1cc2c(s1)-c1sccc1C21OCCO1 |  | > 100 µM (inactive) | > 100 µM (inactive) | > 100 µM (inactive) | > 100 µM (inactive) | 97.7 µM (inactive) | > 100 µM (inactive) | > 100 µM (inactive) | 67.1 µM (inactive) | > 100 µM (inactive) | > 100 µM (inactive) | > 100 µM (inactive) |  | 18.7 µM (inactive) | > 100 µM (inactive) | > 100 µM (inactive) | > 100 µM (inactive) | > 100 µM (inactive) | > 100 µM (inactive) | 

Source: ChEMBL document CHEMBL1201862, “PubChem BioAssay data set” (2004)
